Results from PMC4741190, “Crystal structure of the flavoenzyme PA4991 from Pseudomonas aeruginosa” (Acta Crystallographica. Section F, Structural Biology …, 2016).

Target: T1, PA4991 (Pseudomonas aeruginosa, UniProt Q9HUH4)
T1 construct: N-terminal His6 tag cut with TEV protease; expressed in E. coli BL21(DE3)
T1 sequence (Q9HUH4 1-391): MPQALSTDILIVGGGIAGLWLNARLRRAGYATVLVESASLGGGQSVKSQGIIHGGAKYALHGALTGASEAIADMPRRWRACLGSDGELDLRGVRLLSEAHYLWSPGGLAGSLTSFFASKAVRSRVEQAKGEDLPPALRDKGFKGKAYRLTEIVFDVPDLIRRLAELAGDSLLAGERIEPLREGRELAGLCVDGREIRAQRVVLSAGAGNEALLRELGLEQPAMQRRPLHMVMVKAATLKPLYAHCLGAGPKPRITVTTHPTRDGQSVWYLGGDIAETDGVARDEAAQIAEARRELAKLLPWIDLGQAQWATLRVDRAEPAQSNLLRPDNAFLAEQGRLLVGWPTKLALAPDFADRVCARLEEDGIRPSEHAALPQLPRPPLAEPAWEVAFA
Experiment: X-ray crystal structure, […] A; UV-visible spectrum
Type: binding
Conditions: noncovalent; co-purified cofactor, extended conformation; crystals pH 8.5, soaked in 1 mM phenylmercuric chloride

Cc1cc2nc3c(=O)[nH]c(=O)nc-3n(C[C@H](O)[C@H](O)[C@H](O)COP(=O)(O)OP(=O)(O)OC[C@H]3O[C@@H](n4cnc5c(N)ncnc54)[C@H](O)[C@@H]3O)c2cc1C [FAD]
X-ray crystal structure, 2.40 A; UV-visible spectrum: FAD is bound noncovalently to PA4991 in an extended conformation
